Results from USH1427H, “Substituted flavonoid compounds, their salts, their manufacture and their use in combination with interleukin-2” (priority 1992, dated 1995).

Experiments:
[1] = test system: Renca murine renal cancer; settings: combined doxorubicin and adoptive immunotherapy with rIL-2; cited from earlier work
YAC-1 tumor target = test: Augmentation of NK activity, 4-hr 51Cr release assay with effector leukocytes from treated animals; assay type: in vivo, mice; settings: Table 1
From the text: The immunomodulatory activity of boosting NK activity is readily determined in accordance with the protocol outlined by Wiltrout et al. in J. Exp. Med. (1984), vol. 160, p. 1431-1449, which is hereby incorporated by reference. Using this protocol, the flavonoid compounds of the present invention must be capable of boosting NK activity at least 2-fold, preferably at least 3-fold, and most preferably at least 4-fold, as measured in lytic units. (See "In Vitro Methods in Cell Mediated and Tumor Immunity", eds. Barry R. Bloom and John R. David, pub. Academic Press (1976), p. 427, for the definition of lytic units.)
Assessment of NK activity. […] Effector leukocytes were isolated from spleen, peritoneal cavity, lungs, and liver as previously described (J. Exp. Med., vol. 160, 1431 (1984) and J. Immunol., vol. 135, 1477 (1985)). NK activity was expressed as either [formula] or LU/1×10^7 cells, with one LU being the number of effector cells required to lyse 20% or 40% of the target cells. Statistical comparisons in NK activity were performed by the student's t-test.
Peak levels of NK-mediated lysis were generally achieved by 24 hour post injection, with levels of NK activity decreasing to background by about day 6.

serum IFN = assay type: in vivo; settings: Table 1
[2] = test system: Renca renal adenocarcinoma; test: Survival of Renca-bearing mice treated with flavonoid and/or rIL-2; assay type: in vivo, BALB/C mice; settings: Table 1, flavonoid plus rIL-2
Experimental: Tumor model. The model used for these studies is the Renca renal adenocarcinoma, a tumor that originated spontaneously and is maintained by serial transplant in BALB/C mice (JNCI, vol. 50, 1013 (1973)). […] After injection of 1×10^5 tumor cells under the renal capsule, the solid tumor mass develops rapidly with direct extension to the peritoneal cavity by days 7 to 9 and metastasis to regional lymph nodes and the liver shortly thereafter. […] Flavonoid was administered by injection of 125 mg/kg i.v. and 125 mg/kg i.p., whereas various doses of rIL-2 were delivered by the i.p. route. Routinely, flavonoid was administered 2 to 4 h after nephrectomy of the primary tumor-bearing kidney on day 11, and rIL-2 was administered once per day for 4 successive days beginning on the day after nephrectomy and FAA treatment. Statistical analysis of survival data was performed by the .chi.^2 test.
The flavonoid compound was administered by injection of e.g. 125 mg/kg i.v. and e.g. 125 mg/kg i.p., whereas various doses of rIL-2 were delivered by the i.p. route. Routinely, flavonoid compound was administered 2 to 4 hours after nephrectomy of the primary tumor-bearing kidney on day 11 and rIL-2 was administered once per day for 4 successive days beginning on the day after nephrectomy and flavonoid treatment. Statistical analysis of survival data was performed by the .chi.^2 test.
BALB/C mice (e.g. 10/group) were injected i.v. with 1×10^5 Renca tumor cells on day 0. On day 11 the tumor-bearing kidney was removed and 2 to 4 h later flavonoid (125 mg/kg i.v.+125 mg/kg i.p.) was administered to appropriate groups. Subsequently, beginning on day 12, some of the flavonoid pretreated mice and two groups of previously untreated mice received four daily i.p. injections of rIL-2 at doses of 30,000 U/day. Mice were then monitored for survival and statistical analyses performed by the .chi.^2 test.

natural killer activity [3] = settings: preliminary studies, Wiltrout et al.; cited from earlier work
natural killer activity [4] = settings: cited from earlier work
Lewis lung carcinoma = settings: cited from earlier work
interferon = settings: preliminary studies, Wiltrout et al.; cited from earlier work
[5] = test system: established murine renal cancer; settings: established murine renal cancer in BALB/c mice; cited from earlier work
[6] = test system: metastatic renal cell cancer; settings: clinical trial, selected patients; Marshal et al.; cited from earlier work
[7] = Preliminary preclinical therapeutic synergy between coumarin and rIL2; assay type: in vivo; settings: preliminary preclinical experiments
From the text: In another publication, Wiltrout et al., J. Natl. Cancer Inst.

COc1cccc2c1C(=O)c1c(O)c3c(c(O)c1C2=O)C[C@@](O)(C(=O)CO)C[C@@H]3O[C@H]1C[C@H](N)[C@H](O)[C@H](C)O1 [doxorubicin]
treatment of Renca murine renal cancer [1]: successfully treated

C=C(C(=O)O)c1cccc2c(=O)cc(-c3ccccc3)oc12 [LM2891]
NK (YAC-1 tumor target): + | IFN (serum IFN): + | Synergistic Therapy With IL-2 [2]: +

O=C(O)Cc1cccc2c(=O)cc(-c3ccccc3)oc12 [flavone-8-acetic acid]
augmentation of natural killer activity in vitro (natural killer activity [3]): failed to detect | natural killer activity, flavone-8-acetic acid plus rIL-2 (natural killer activity [4]; combination with rIL-2, normal and tumor-bearing mice, Wiltrout et al.): synergistically augmented natural killer activity | natural killer activity in nonlymphoid organs (liver and lungs) as well as in the spleen (natural killer activity [4]; liver, lungs, spleen, Wiltrout et al.): could augment natural killer activity in nonlymphoid organs (liver and lungs) as well as in the spleen | splenic natural killer activity (natural killer activity [4]; spleen, Ching et al.): augments splenic natural killer activity | susceptibility of Lewis lung carcinoma cells implanted in diffusion chambers in the peritoneum (Lewis lung carcinoma; administered ip, diffusion chambers, Finlay et al.): not susceptible | anti-tumor effects against Lewis lung carcinoma (Lewis lung carcinoma; in vivo, mice, Finlay et al.): pronounced anti-tumor effects | tumoricidal activity in vivo compared with direct cytotoxic effects in vitro (Lewis lung carcinoma; mouse, in vivo): more pronounced and occurs more rapidly in vivo than direct cytotoxic effects observed in vitro | induction of interferon in vitro (interferon): failed to detect induction of interferon | anti-tumor effects, combination of flavone-8-acetic acid plus interleukin-2 [5]: synergistic anti-tumor effects

COc1cccc(-c2cc(=O)c3cccc(CC(=O)O)c3o2)c1 [LM2889]
NK (YAC-1 tumor target): + | IFN (serum IFN): + | Synergistic Therapy With IL-2 [2]: +

O=C(O)Cc1cccc2c(=O)cc(-c3ccco3)oc12 [LM2888]
NK (YAC-1 tumor target): + | IFN (serum IFN): I | Synergistic Therapy With IL-2 [2]: I

O=c1ccc2ccccc2o1 [coumarin]
anti-tumor activity in patients with metastatic renal cell cancer [6]: demonstrated anti-tumor activity | therapeutic synergy between coumarin and rIL2 [7]: no therapeutic synergy was observed
